This note sets out measurements from patent publication US20190055517A1, “Cell Line of M2c Macrophage and Its Applications” (National Pingtung University of Science and Technology, priority 2017, published 2019).

In assay [1] the test system is murine M2 macrophage. Description: mRNA expression level of each gene by real time PCR (qPCR) after induced differentiation. The assay is classed as cell-based. The settings on record: for IL-6 mRNA expression level: conditions of chart 2, FIG. 6. How it is done:
Embodiment 1 is prepared by the steps described above, isolate monocytes from murine bone marrow and use M-CSF to induce differentiation of M2 macrophage, and then use baicalin to induce M2C macrophage polarization. In comparison 1, incubate murine M2 macrophage in RPMI 1640 (10% FCS) containing LPS (lipopolysaccharide, 1 μg/ml, Sigma-Aldrich) for 2 hours. In comparison 2, incubate murine M2 macrophage in medium containing IL-4 ([…] Guidance System, Cambridge, UK) for 24 hours. The control group of M2 macrophage is incubated in RPMI 1640 (10% FCS) without any drugs. The conditions are shown below in chart 2.
After induced differentiation is complete, use flow cytometry to analyse the macrophage phenotype, in the meantime, also use real time PCR (qPCR) to observe mRNA expression level of each gene.
TNF-Alpha: M1 macrophage expression gene IRF5: M1 macrophage polarization promoting gene IRF4: M2 macrophage polarization promoting gene ARG1 (Arginase-1): M2a macrophage molecular marker IL-10: cytokine that promotes M2 macrophage polarization and inhibits inflammation IL-6: cytokine that promotes inflammation and also serves as M2b macrophage molecular marker. MERTK: a gene that serves as M2C macrophage molecular marker and promotes phagocytosis PTX3: a gene that serves as M2C macrophage molecular marker and promotes phagocytosis VEGF-A: vascular endothelial growth factor PD-L1: a gene that regulates T cell and promotes tissue autoimmune tolerance

Assay [2] concerns M2 cell line from murine bone marrow. Description: Efferocytosis of CFSE-marked apoptotic cells by macrophages (flow cytometry PE-MERTK / CFSE). The settings on record: apoptotic cells : M2 3:2, 2 hours, p<0.05, FIG. 21. The assay is classed as cell-based. On the procedure:
Efficacy evaluation of apoptotic cells efferocytosis in macrophages: method of the evaluation for effectiveness of apoptotic cells efferocytosis in M2 macrophage induced differentiated by different drugs were slightly modified based on previous studies (Li et al., Yancey et al., and Jehle et al; Liu st al and Lilis at al 2008). Detail steps are described below. Use 3 μM CFSE Cell Trace (Thermofisher, USA) to mark RAW264.7 macrophage cell line for 20 minutes under 37° C., then wash with PBS. Culture cells for 24 hours, then use the 1.5 mM H2O2 following the aforementioned steps to induce RAW264.7 macrophage cell to differentiate into apoptotic cells. […] Lastly, use flow cytometry (FACS BD ARIA II, BD Bioscience, USA) to examine fluorescence performance, if both PE-MERTK and CFSE appear positive, the cell will be identified as the M2C macrophages that efferocytosed the aforementioned apoptotic cells.
Results of fluorescence expression of stained apoptotic cells, macrophages and efferocytotic macrophages detected by flow cytometry are shown in FIG. 20. Apoptotic cells induced by H2O2 (1.5 mM) and express FITC fluorescence after FITC-CFSE staining are distributed in P4 region. Differentiated M2 macrophage expresses MERTK are detected by the expressed PE fluorescence after PE-MERTK staining, which is distributed in P5 region. […]
(In flow cytometry, cells or beads pass a laser one at a time.)

The mark [3] stands for this setting: conditions of chart 2, P<0.05, FIG. 7 and FIG. 8.
Setting [4] is: conditions of chart 2, p<0.05, FIG. 5.

Consider `O=C(O)[C@H]1O[C@@H](Oc2cc3oc(-c4ccccc4)cc(=O)c3c(O)c2O)[C@H](O)[C@@H](O)[C@@H]1O` [Baicalin], for which the “IL-6 mRNA expression level” value in assay [1] was “significantly lower than comparison 1”. For the same molecule, the “IL-6 mRNA expression level” value in assay [1] (listed as embodiment 1) was “low”. For the same molecule, the “IL-10 mRNA expression level” value in assay [1] (conditions of chart 2, P<0.05, FIG. 6) was “significantly higher than comparison 1 and 2”. Further, in assay [1] (setting [3]), the “MERTK mRNA expression level” value was “significantly higher than control, comparison 1 and 2”; the “PD-L1 mRNA expression level” value is “significantly higher than control, comparison 1 and 2”; the “PTX3 mRNA expression level” value was “significantly higher than control, comparison 1 and 2”; the “VEGF-A mRNA expression level” value was “significantly higher than control, comparison 1 and 2”. Also, in assay [1] (setting [4]), the “IRF4 mRNA expression level” value is recorded as “significantly lower than comparison 2”, the “IRF5 mRNA expression level” value is “significantly lower than comparison 1” and the “TNF-Alpha mRNA expression level” value is listed as “significantly lower than comparison 1”. The “ARG1 mRNA expression level” value in assay [1] (conditions of chart 2, p<0.05, FIG. 6) is “significantly lower than comparison 2”. Moreover, in assay [2] (cells expressing CFSE), the “mean fluorescence intensity of MERTK of single M2 macrophage” value was “significantly higher than other drug treated groups and control group”. Besides, in assay [2] (cells expressing MERTK), the “mean fluorescence intensity of CFSE of single M2 macrophage” value is “significantly higher than other drug treated groups and control group”.
